According to patent publication US12458572B2, “Homogeneous liquid composition comprising 1,2-octanediol and use thereof” (Minasolve SAS, priority 2020, dated 2025):

Assay: log POW, n-octanol/water partition coefficient, OECD Test No. 117
Assay type: physicochemical
Conditions: not given
Method: The partition coefficient between n-octanol and water, also called ‘log POW’ and performed according to OECD Test No. 117 at 25° C., of 1,2-octanediol is 2.1. […] A specialist trained in the art could therefore expect that a mixture of water, 1,2-octanediol and hydrophilic short chain alkanediols and/or alkanetriols would form a hydrophilic phase containing water, and a separate lipophilic phase containing 1,2-octanediol.
The miscibility of 1,2-octanediol with C3-C4 alkanediols is well-known. However, comparably large amounts of these diols are needed for lowering the melting point of 1,2-octanediol below 15° C. Furthermore, C3-C4 polyols are highly hydrophilic components with a log POW of ≤0, as detailed in the following table (Table 1).

Q: Which “log POW (25° C.)” value does the source give for `OCC(O)CO` [1,2,3-trihydroxypropane] here?
A: −1.75

Q: Which “log POW (25° C.)” value does the source give for `CC(O)CO` (stereo not shown) [1,2-propanediol] here?
A: 1.07

Q: With `OCCCCO` [1,4-butanediol] as the compound, how does the “log POW (25° C.)” value read?
A: −0.88

Q: For `CC(O)C(C)O` (stereo not shown) [2,3-butanediol], which “log POW (25° C.)” value is on record?
A: −0.92

Same assay, conditions: OECD Test No. 117 at 25° C.

Q: Which “log POW (25° C.)” value does the source give for `CCC(O)CO` (stereo not shown) [1,2-butanediol] here?
A: −0.59

Q: For `CCCCCCC(O)CO` (stereo not shown) [1,2-octanediol], which “log POW (25° C.)” value is on record?
A: 2.1

Q: With `CC(O)CCO` (stereo not shown) [1,3-butanediol] as the compound, how does the “log POW (25° C.)” value read?
A: −0.92

Q: Which “log POW (25° C.)” value does the source give for `OCCCO` [1,3-propanediol] here?
A: 0.71

Q: With `CC(CO)CO` [2-methyl-1,3-propanediol] as the compound, how does the “log POW (25° C.)” value read?
A: −0.6

Assay: Solubility in 1,2-octanediol
Assay type: physicochemical
Conditions: not given
Method: The solubility of water in 1,2-octanediol exceeds 30% at 40° C. However, mixtures of 1,2-octanediol with water tend to form highly viscous gels at ambient temperature which are hard to handle.
Glycerol, with glycerine and 1,2,3-trihydroxypropane as well-known alternative names, is a C3 alkanetriol. The solubility of glycerol in 1,2-octanediol exceeds 30%. However, mixtures of 1,2-octanediol and glycerol tend to be highly viscous and might separate at low temperatures. Furthermore, the addition of high amounts of glycerol to skin care formulations may cause a sticky skin-feel.

Q: With `OCC(O)CO` [1,2,3-trihydroxypropane] as the compound, how does the “solubility of glycerol in 1,2-octanediol” value read?
A: exceeds 30%
